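Cultured in 96-well plates, cells were exposed to test compound for 48 hours across five concentrations. GI50: concentration for 50% inhibition of growth.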 Active and inactive are the calls of the source. No stated cut-off is given here; in the data, active = GI50 up to about 1.1 µM and inactive = higher.
Tests used:
Assay in all cases: inhibition of tumour cell growth, NCI panel, 48 h
A549 = system: A549
LOX IMVI = system: LOX IMVI
K562 = system: K562
SK-OV-3 = system: SK-OV-3
RPMI-8226 = system: RPMI-8226
HCT-116 = system: HCT-116
IGROV-1 = system: IGROV-1
UO-31 = system: UO-31
SK-MEL-28 = system: SK-MEL-28
OVCAR-3 = system: OVCAR-3
UACC-257 = system: UACC-257
SNB-75 = system: SNB-75
NCI-H460 = system: NCI-H460
SK-MEL-5 = system: SK-MEL-5
SF-539 = system: SF-539
SR = system: SR
SK-MEL-2 = system: SK-MEL-2
A498 = system: A498

Measured: GI50

O=C(N/N=C(\C1=Nc2ccc(Cl)cc2NC1O)C(O)/C=C/c1ccccc1)c1ccncc1 (centres undefined)
inactive: A549 > 100 µM | LOX IMVI > 100 µM | K562 > 100 µM | SK-OV-3 > 100 µM | RPMI-8226 > 100 µM | HCT-116 > 100 µM | IGROV-1 > 100 µM | UO-31 30.8 µM | SK-MEL-28 > 100 µM | OVCAR-3 > 100 µM | UACC-257 > 100 µM | SNB-75 > 100 µM | NCI-H460 > 100 µM | SK-MEL-5 > 100 µM | SF-539 > 100 µM | SR > 100 µM

CC(=O)Oc1ccccc1 [ACETIC ACID PHENYL ESTER]
inactive: A549 > 100 µM | LOX IMVI > 100 µM | K562 > 100 µM | RPMI-8226 > 100 µM | HCT-116 > 100 µM | IGROV-1 > 100 µM | UO-31 > 100 µM | SK-MEL-28 > 100 µM | OVCAR-3 > 100 µM | UACC-257 > 100 µM | SNB-75 > 100 µM | SK-MEL-2 > 100 µM | NCI-H460 > 100 µM | A498 > 100 µM | SK-MEL-5 > 100 µM | SF-539 > 100 µM

CC(=O)Oc1cc(OC(C)=O)c2cc3c(cc2c1OC(C)=O)C(=O)C1(CCCC1)C3=O
inactive: A549 19.1 µM | LOX IMVI 14.3 µM | K562 14.7 µM | SK-OV-3 17.6 µM | RPMI-8226 2.29 µM | IGROV-1 17.2 µM | UO-31 16.3 µM | SK-MEL-28 15.6 µM | OVCAR-3 19.3 µM | SNB-75 14.2 µM | NCI-H460 17.5 µM

COc1cc([C@@H]2c3cc4c(cc3[C@@H](NCc3cccc(F)c3)C3COC(=O)[C@@H]32)OCO4)cc(OC)c1O (some centres undefined)
inactive: A549 1.17 µM | LOX IMVI 3.58 µM | K562 6.49 µM | SK-OV-3 4.19 µM | RPMI-8226 2.29 µM | HCT-116 4.5 µM | IGROV-1 3.18 µM | UO-31 5.57 µM | SK-MEL-28 8.61 µM | OVCAR-3 12.2 µM | UACC-257 10.8 µM | SNB-75 1.95 µM | SK-MEL-2 12.9 µM | A498 2.68 µM | SK-MEL-5 7.13 µM | SF-539 2.52 µM
active: NCI-H460 0.37 µM

O=C1CCC2(c3ccccc3)Nc3ncccc3N12 (centres undefined)
inactive: A549 > 100 µM | LOX IMVI > 100 µM | K562 > 100 µM | SK-OV-3 > 100 µM | RPMI-8226 > 100 µM | IGROV-1 > 100 µM | UO-31 > 100 µM | SK-MEL-28 > 100 µM | OVCAR-3 > 100 µM | UACC-257 > 100 µM | SNB-75 61.9 µM | SK-MEL-2 > 100 µM | NCI-H460 > 100 µM | A498 > 100 µM | SK-MEL-5 > 100 µM | SF-539 > 100 µM

Cn1c2cccc3nnc4cccc(c4c32)n1C
inactive: A549 > 100 µM | LOX IMVI > 100 µM | K562 > 100 µM | RPMI-8226 > 100 µM | HCT-116 > 100 µM | IGROV-1 > 100 µM | UO-31 > 100 µM | SK-MEL-28 > 100 µM | OVCAR-3 > 100 µM | UACC-257 > 100 µM | SK-MEL-2 > 100 µM | NCI-H460 > 100 µM | A498 > 100 µM | SK-MEL-5 > 100 µM | SF-539 > 100 µM

Cc1cccc(C)c1NC(=O)C1=NC(=S)NC(c2ccccc2)C1c1nc2ccccc2s1 (centres undefined)
inactive: A549 > 100 µM | K562 > 100 µM | SK-OV-3 > 100 µM | HCT-116 > 100 µM | IGROV-1 > 100 µM | UO-31 > 100 µM | SK-MEL-28 > 100 µM | OVCAR-3 > 100 µM | UACC-257 > 100 µM | SNB-75 > 100 µM | SK-MEL-2 > 100 µM | NCI-H460 > 100 µM | A498 > 100 µM | SK-MEL-5 > 100 µM | SF-539 > 100 µM | SR > 100 µM

COc1cc(C[S+]2CCCC2)c(SC)cc1C[S+]1CCCC1
inactive: A549 > 100 µM | LOX IMVI > 100 µM | K562 > 100 µM | SK-OV-3 > 100 µM | RPMI-8226 > 100 µM | HCT-116 > 100 µM | IGROV-1 > 100 µM | UO-31 > 100 µM | SK-MEL-28 > 100 µM | OVCAR-3 > 100 µM | UACC-257 > 100 µM | SNB-75 47.4 µM | SK-MEL-2 > 100 µM | NCI-H460 > 100 µM | A498 > 100 µM | SK-MEL-5 > 100 µM | SF-539 > 100 µM

N#CCc1cccc(CC#N)c1Br
inactive: A549 > 100 µM | LOX IMVI > 100 µM | K562 > 100 µM | SK-OV-3 > 100 µM | RPMI-8226 > 100 µM | HCT-116 > 100 µM | IGROV-1 > 100 µM | UO-31 > 100 µM | OVCAR-3 > 100 µM | UACC-257 > 100 µM | SNB-75 > 100 µM | SK-MEL-2 > 100 µM | NCI-H460 > 100 µM | SF-539 > 100 µM | SR > 100 µM

From ChEMBL document CHEMBL1201862, “PubChem BioAssay data set” (2004)
